Results: paper PMC12756401, “Effect of itraconazole on pharmacokinetics of ZX-7101A tablets in healthy Chinese subjects” (Frontiers in Pharmacology, 2025)

Conditions: in vivo
Method: This single center, open label, fixed sequence trial consisted of two stages. Stage 1 was single oral administration of ZX-7101A tablets to the subjects under fasting condition, while Stage 2 included coadministration of ZX-7101A tablets and itraconazole capsules. Participants took ZX-7101A tablets 40 mg orally under fasting condition in the morning on D1 of Stage 1 and D31 of Stage 2. In drug-drug interaction clinical trials, the selected dose of the precipitant drug should maximize the potential to identify drug-drug interaction in the context of safety (i.e., achieving an exposure level close to the highest clinically recommended dose). […] The PK of itraconazole is influenced by its formulation, food intake, and gastrointestinal pH ([Liu et al., 2016]; [Allen et al., 2015]). […] Therefore, in this study, itraconazole was administered orally after meals to achieve maximum clinical exposure. Therefore, from D26 to D50 of Stage 2, the participants took 200 mg itraconazole capsules once daily for 25 consecutive days within 30 min after eating a standard breakfast (coadministration with ZX-7101A at the same time in the morning of D31 under fasting condition). […]
The safety of subjects was assessed in terms of adverse events (AEs) and serious adverse events (SAEs) after administration based on the findings of physical examination, vital signs, ECG, and laboratory tests.

CCC(C)n1ncn(-c2ccc(N3CCN(c4ccc(OCC5COC(Cn6cncn6)(c6ccc(Cl)cc6Cl)O5)cc4)CC3)cc2)c1=O (centres unmarked) [Itraconazole, itraconazole]
TEAE: COVID-19 (human): 0 n (%)
drug-related TEAE: None of the subjects developed any drug-related TEAE
